Earlier results on one compound are cited in patent EP0084011B1, “Quinoline carboxylic acid complexes with guanidinium carbonate and guanidine” (Merck & Co., Inc., priority 1982, dated 1983).

SMILES strings stand for the structures. Converted amounts (≈) assume the structure as drawn.

On to `CCn1cc(C(=O)O)c(=O)c2cc(F)c(N3CCNCC3)cc21` [Parent, 1-ethyl-6-fluoro-1,4-dihydro-4-oxo-7-(1-piperazinyl)-3-quinoline carboxylic acid], for which the Solubility (as a rule, the concentration that dissolves in the medium under given conditions) (in water, 25 °C, reported water solubility of the parent compound) was 200 µg/mL (≈ 626 µM). Also, the water solubility entry (pH range of 6-10, background statement) is recorded as “very low water solubility”.
